The conditions of series [1]: experimentally determined values from literature; cited from earlier work.
Series [2] can be described thus: Recrystallization in shampoo, 2 days at 5° C., microscopy. It counts as physicochemical. Particulars: polarized light, 60 fold, 0.1% 4-isopropyl-3-methyl-phenol. The method, then: To investigate the influence on recrystallization in a finished formulation the pre-solutions BC, BC2, BC3 and BC5 (Table 3) in comparison to neat 4-isopropyl-3-methyl phenol were incorporated into a shampoo. (Table 5, trials 1-5) The samples were stored for 2 days at 5° C. and then examined by microscopy.
Production method shampoo: Blend Phase A by stirring slowly with a vane stirrer, stop the process when foaming starts. Swell Ucare Poylmer JR-400 in water by stirring and warming up to 50° C. (The dispersion becomes clear and slightly viscous, when swelling process is completed) Add Phases B, C and D to A one after the other by stirring with a vane stirrer.
Incorporation of 4-isopropyl-3-methyl-phenol (neat) into the finished shampoo: Heat up the shampoo to 70° C., add 4-isopropyl-3-methyl-phenol and stir for 15 min.
Incorporation of solutions BC, BC2, B3 and BC5: Blend 0,45% (corresponds to 0,1% neat 4-isopropyl-3-methyl-phenol) of the different mixtures with the shampoo formula at 22° C. by […]
Microscopic images (Olympus IX 70, polarized light, 60 fold) of shampoo formulae 1-5 after 2 days storage at 5° C. are provided in FIGS. 4A to 4E.

The nature of series [3]: General solubility of 4-isopropyl-3-methyl-phenol in different hydrophilic solvents, storage at 5° C. Type of series: physicochemical. Particulars: stored at 5° C. The method, then:
After preparation, the samples were stored at 5° C. for […]. […] The evaluation of these limits was important for further determination of quantitative solubility improvement. The results are compiled in Table A and 13; the symbols have the following meanings: (++++) fully dissolved; (++) dissolved, but moderate recrystallisation after 48 h at 5° C.; (+) dissolved, but strong recrystallisation after 48 h at 5° C.; (#) not dissolved.

For `CCCCC(O)CO` (stereo not shown) [1,2-Hexanediol], in series [1], the “LOG Po/w (exp.)” value is recorded as 0.69.
On to `Cc1cc(O)ccc1C(C)C` [4-isopropyl-3-methyl-phenol], for which the Recrystallization in shampoo result in series [2] is recorded as “recrystallized”.
Take `OCc1ccccc1` [Benzylalkohol]: the “Solubility of 4-isopropyl-3-methyl-phenol in different hydrophilic solvents” value (“Solubility … in different hydrophilic solvents” for short) is recorded as “++” in series [3] (Concentration 15 % b.w.); “+” in series [3] (Concentration 22 % b.w.); “+” in series [3] (Concentration 25 % b.w.); “+” in series [3] (Concentration 30 % b.w.); “+” in series [3] (Concentration 34 % b.w.); “+” in series [3] (Concentration 36 % b.w.). The “Solubility … in different hydrophilic solvents” value in series [3] (Concentration 40 % b.w.) and in series [3] (Concentration 46 % b.w.) was “+” in each case.
Take `Cc1ccc(C(C)C)cc1O` [Carvacrol]: in series [1], the “LOG Po/w (exp.)” value is 3.49.
As for `C=C(C)C1CC=C(C)C(=O)C1` (stereo not shown) [Carvone], in series [1], the “LOG Po/w (exp.)” value is 2.71.
Regarding `CCOCCOCCO` [Ethoxydiglycol], the “LOG Po/w (exp.)” value in series [1] is given as −0.54.
For the compound `CCCCCCCCCCCC(=O)OCC` [Ethyl Laurate], the “LOG Po/w (exp.)” value in series [1] is 5.71.
As to `CCOC(C)=O` [Ethyl acetate], the “LOG Po/w (exp.)” value in series [1] is 0.73.
On to `OCCO` [Ethylene glycol], for which the “LOG Po/w (exp.)” value in series [1] is listed as −1.36.
Turning to `O=C1OCC(CO)O1` (stereo not shown) [Glycerin Carbonate], the “Solubility … in different hydrophilic solvents” value in series [3] (Concentration 5 % b.w.) is reported as “++”.
Consider `CC(=O)OCCC(C)C` [Isoamyl acetate], for which the “LOG Po/w (exp.)” value in series [1] is 2.25.
Consider `C=C(C)[C@H]1CC=C(C)CC1` [Limonene], for which the “LOG Po/w (exp.)” value in series [1] was 4.38.
Consider `CC(C)[C@@H]1CC[C@@H](C)CC1=O` [Menthone], for which the “LOG Po/w (exp.)” value in series [1] was 3.05.
For `CC(=O)OC1CC(C)CCC1C(C)C` (stereo not shown) [Menthyl acetate], the “LOG Po/w (exp.)” value in series [1] is 4.00.
Consider `COC(=O)c1ccccc1O` [Methyl salicylate], for which the “LOG Po/w (exp.)” value in series [1] was 2.55.
Take `O=C(OCCc1ccccc1)c1ccccc1` [Phenethyl Benzoate]: in series [1], the “LOG Po/w (exp.)” value is on record as 4.01.
With `OCCOc1ccccc1` [Phenoxyethanol], the “LOG Po/w (exp.)” value in series [1] is recorded as 1.16.
`CC1COC(=O)O1` (stereo not shown) [Propylene Carbonate]: the “Solubility … in different hydrophilic solvents” value in series [3] (Concentration 18 % b.w.) is given as “++”; in series [3] (Concentration 29 % b.w.), “+”.
Turning to `CC(O)CO` (stereo not shown) [Propylene Glycol], the “Solubility … in different hydrophilic solvents” value in series [3] (Concentration 22 % b.w.) is on record as “++”; in series [3] (Concentration 25 % b.w.) it was “+”.

These data come from patent US11400035B2, “Preservative mixture” (Symrise AG, priority 2016, dated 2022).
